Measured values published in the NIST ThermoML archive (doi:10.1021/je800110r).

Conditions: 303.16 K, Liquid, Vibrating tube method

CCCCCCCCCC [decane]
Conditions | mass density [kg/m3]
20929 kPa | 738
20946 kPa | 738.2
20968 kPa | 738.1
20994 kPa | 738
21014 kPa | 738.1
21034 kPa | 738.1
21060 kPa | 738.2
21084 kPa | 738.1
21107 kPa | 738.2
21124 kPa | 738.2
21151 kPa | 738.1
21174 kPa | 738.2
21191 kPa | 738.2
21209 kPa | 738.2
21226 kPa | 738.3
21243 kPa | 738.2
21267 kPa | 738.4
21293 kPa | 738.3
21314 kPa | 738.3
21341 kPa | 738.3
21358 kPa | 738.4
21382 kPa | 738.3
21403 kPa | 738.3
21424 kPa | 738.5
21448 kPa | 738.4
21469 kPa | 738.5
21490 kPa | 738.4
21514 kPa | 738.4
21538 kPa | 738.4
21560 kPa | 738.6
21579 kPa | 738.5
21600 kPa | 738.5
21622 kPa | 738.5
21641 kPa | 738.5
21662 kPa | 738.6
21686 kPa | 738.6
21708 kPa | 738.7
21730 kPa | 738.6
21745 kPa | 738.7
21779 kPa | 738.7
21805 kPa | 738.6
21827 kPa | 738.7
21847 kPa | 738.7
21869 kPa | 738.6
21891 kPa | 738.7
21916 kPa | 738.7
21938 kPa | 738.8
21962 kPa | 738.8
21987 kPa | 738.7
22006 kPa | 738.8
22029 kPa | 738.9
22057 kPa | 738.8
22086 kPa | 738.8
22108 kPa | 738.7
22127 kPa | 738.9
22153 kPa | 738.8
22178 kPa | 738.9
22201 kPa | 738.8
22224 kPa | 739
22246 kPa | 738.9
22269 kPa | 738.9
22291 kPa | 739.1
22314 kPa | 739
22333 kPa | 738.9
22360 kPa | 739
22380 kPa | 739
22410 kPa | 739
22436 kPa | 739
22463 kPa | 739.1
22489 kPa | 739.1
22516 kPa | 739
22542 kPa | 739.1
22565 kPa | 739.1
22589 kPa | 739.2
22619 kPa | 739.2
22647 kPa | 739.2
22666 kPa | 739.2
22696 kPa | 739.3
22723 kPa | 739.2
22750 kPa | 739.3
22773 kPa | 739.3
22801 kPa | 739.4
22825 kPa | 739.3
22846 kPa | 739.3
22870 kPa | 739.4
22897 kPa | 739.3
22918 kPa | 739.3
22950 kPa | 739.5
22971 kPa | 739.4
22996 kPa | 739.5
23013 kPa | 739.5
23041 kPa | 739.4
23062 kPa | 739.5
23097 kPa | 739.5
23124 kPa | 739.5
23149 kPa | 739.6
23174 kPa | 739.6
23202 kPa | 739.6
23224 kPa | 739.6
23257 kPa | 739.7
23285 kPa | 739.6
23310 kPa | 739.6
23339 kPa | 739.7
23360 kPa | 739.7
23385 kPa | 739.6
23411 kPa | 739.7
23437 kPa | 739.8
23466 kPa | 739.7
23495 kPa | 739.8
23526 kPa | 739.7
23549 kPa | 739.7
23575 kPa | 739.9
23600 kPa | 739.8
23630 kPa | 739.9
23652 kPa | 739.9
23682 kPa | 739.9
23705 kPa | 739.9
23735 kPa | 739.9
23761 kPa | 740
23784 kPa | 739.9
23813 kPa | 739.9
23845 kPa | 740.1
23872 kPa | 740
23902 kPa | 740.1
23933 kPa | 740.1
23968 kPa | 740.1
23991 kPa | 740.1
24021 kPa | 740.2
24048 kPa | 740.2
24083 kPa | 740.1
24102 kPa | 740.1
24133 kPa | 740.2
24165 kPa | 740.2
24200 kPa | 740.3
24235 kPa | 740.3
24255 kPa | 740.2
24282 kPa | 740.4
